Measurements as given in patent US12377083B2 (WUHAN LL SCIENCE AND TECHNOLOGY DEVELOPMENT CO., LTD., priority 2019, dated 2025).
Like-named read-outs stand apart in the source and are kept apart here.

Columns and labels:
[1] = target: hLPAR1 (human lysophosphatidic acid receptor 1) (Homo sapiens, UniProt Q92633); assay: FLIPR assay of intracellular calcium increase induced by activation of hLPAR1 expressed in CHO-K1 cells; format: cell-based; settings: CHO-K1 cells expressing hLPAR1, agonist oleoyl-L-α-lysophosphatidic acid 1 μM
Procedure: The antagonist property of the compounds disclosed herein was determined using the FLIPR (fluorescence imaging plate reader) method, wherein the compounds are inhibitors for the intracellular calcium increase induced by activation of hLPAR1 (human lysophosphatidic acid receptor 1, accession No. NM_001401.4) expressed in CHO-K1 cells (Chinese hamster ovary cells K1, ATCC).
Cells at 250,000 cells/mL were seeded into a 96-well plate (25,000 cells/well) 18-24 h prior to the FLIPR experiment and then incubated overnight in a cell incubator. […] Each well was added with 75 μL of […] Fluo-4 AM fluorescent dye (Thermo, F14202) and then the cells were subjected to dye-loading incubation at 37° C. for 1.0 h. The 96-well plate was then washed once with buffer, added with a buffer containing a test compound or a vehicle at 50 μL per well and then incubated for 30 min at room temperature. […] An agonist (oleoyl-L-α-lysophosphatidic acid sodium salt (Sigma, L7260)) at a final concentration of 1 μM or a vehicle (ultrapure water) was then added at 50 μL/well, fluorescence values were measured for 2 min at 1-second intervals, and finally the output fluorescence counts were analyzed.

[2] = test system: A2058 (human melanoma cells); assay: A2058 cell scratch (migration) assay with LPA; format: cell-based; settings: 10 μM LPA, scratch area at 24 h
Procedure: The activity of the compounds disclosed herein at the cell level in vitro is evaluated by A2058 (human melanoma cells, Beina Bio, BNCC341099) cell scratch assay. The inhibitory activity of the compounds against LPAR1 can be reflected by inhibition of cell scratch healing.
After the cell confluence reached 80%, the cell culture plate was taken out and the original medium was discarded. Serum-free medium was then added, and the cells were starved overnight in an incubator (37° C., 5% CO2). The cell culture plate was then taken out, and cell scratches were made along the diameter of the wells using a 200 μL pipette tip. The cell culture plate was then added with 500 μL of serum-free medium and then shaken gently to wash away the residual cells on the scratched surface, and this was repeated twice. The medium was discarded and 500 μL of 1% FBS medium containing the compound was then added, and the mixture was incubated at 37° C. for 30 min. […] Olympus CKX53 was used to observe the scratches, and MShot image analysis system was used to take pictures and measure the scratch area at 0 h. The plate was incubated in the incubator under the conditions of 37° C. and 5% CO2. 24 h later, the scratches were observed again with Olympus CKX53, and MShot image analysis system was used to take pictures and measure the scratch area at 24 h. Cell migration inhibition rate was calculated according to the following formula: […]

Chain of hLPAR1 (human lysophosphatidic acid receptor 1) (Q92633 whole entry): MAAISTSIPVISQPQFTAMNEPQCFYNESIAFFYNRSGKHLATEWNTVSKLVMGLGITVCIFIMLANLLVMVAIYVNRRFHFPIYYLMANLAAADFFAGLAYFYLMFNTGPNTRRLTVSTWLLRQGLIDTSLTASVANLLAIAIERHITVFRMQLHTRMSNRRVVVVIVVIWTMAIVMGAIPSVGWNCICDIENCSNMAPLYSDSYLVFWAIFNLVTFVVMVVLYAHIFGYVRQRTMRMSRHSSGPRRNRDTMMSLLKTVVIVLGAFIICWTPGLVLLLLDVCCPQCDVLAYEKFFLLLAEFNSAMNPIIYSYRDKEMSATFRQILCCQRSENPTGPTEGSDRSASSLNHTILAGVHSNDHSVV

| Structure (SMILES) | IC50 ([1]; read-out: LPAR1 IC50) | Cell migration inhibition rate (%) [2] | IC50 ([1]; LPAR1 IC50 (μM)) |
| --- | --- | --- | --- |
| CN(C(=O)OCc1c(-c2ccc(C3CCC[C@H](C(=O)O)C3)cc2)cnn1C)C1CCCC1 (mixture of isomers) [Compound 73] | 0.3 to 10 µM | – | – |
| Cc1nc(-c2cnn(C)c2COC(=O)N2CC3CCC2CO3)ccc1O[C@H]1CCC[C@H](C(=O)O)C1 (mixture of isomers) [Compound 96] | 0.3 to 10 µM | – | – |
| Cc1nc(-c2cnn(C)c2COC(=O)N(C)C2COC2)ccc1O[C@H]1CCC[C@H](C(=O)O)C1 (racemic) [Compound 64, (+/−)-(1S,3S)-3-((2-methyl-6-(1-methyl-5-(((methyl(oxetan-3-yl)carbamoyl)oxy)methyl)-1H-pyrazol-4-yl)pyridin-3-yl)oxy)cyclohexane-1-carboxylic Acid] | 0.3 to 10 µM | C (C: 0-30%) | – |
| Cc1nc(-c2cnn(C)c2COC(=O)N2CC3CCC(C2)O3)ccc1O[C@H]1CCC[C@H](C(=O)O)C1 (racemic) [Compound 65, (+/−)-(1R,3R)-3-((6-(5-(((8-oxa-3-azabicyclo[3.2.1]octane-3-carbonyl)oxy)methyl)-1-methyl-1H-pyrazol-4-yl)-2-methylpyridin-3-yl)oxy)cyclohexane-1-carboxylic Acid] | 0.3 to 10 µM | C (C: 0-30%) | – |
| CN(Cc1ccccc1)C(=O)OCc1oncc1-c1ccc(O[C@H]2CCC[C@H](C(=O)O)C2)cc1 (racemic) [Compound 68] | 0.3 to 10 µM | – | – |
| Cc1noc(-c2ccc(O[C@H]3CCC[C@H](C(=O)O)C3)cc2)c1OC(=O)N(C)C1CCCC1 (racemic) [Compound 69] | – | – | 0.3 to 10 µM |
| Cc1cnn(-c2ccc(O[C@H]3CCC[C@H](C(=O)O)C3)cc2)c1N(C)C(=O)OC1CCCC1 (racemic) [Compound 70] | 0.3 to 10 µM | – | – |
| Cc1ccn(-c2ccc(O[C@H]3CCC[C@H](C(=O)O)C3)cc2)c1N(C)C(=O)OC1CCCC1 (racemic) [Compound 71] | 0.3 to 10 µM | – | – |
| CN(C(=O)OCc1oncc1-c1ccc(O[C@H]2CCC[C@H](C(=O)O)C2)cc1)C1CCCC1 (racemic) [Compound 72] | 0.3 to 10 µM | – | – |
| CN(C(=O)OCc1cnncc1-c1ccc(O[C@H]2CCC[C@H](C(=O)O)C2)cc1)C1CCCC1 (racemic) [Compound 74] | 0.3 to 10 µM | – | – |
| CN(C(=O)OCc1cncnc1-c1ccc(O[C@H]2CCC[C@H](C(=O)O)C2)cc1)C1CCCC1 (racemic) [Compound 76] | 0.3 to 10 µM | – | – |
| CN(CC1CCCC1)C(=O)OCc1c(-c2ccc(O[C@H]3CCC[C@H](C(=O)O)C3)c(F)n2)cnn1C (racemic) [Compound 77] | < 0.05 µM | – | – |
| Cc1onc(-c2ccc(O[C@H]3CCC[C@H](C(=O)O)C3)cn2)c1COC(=O)N(C)C1CCCC1 (racemic) [Compound 79] | < 0.05 µM | – | – |
| Cc1snc(-c2ccc(O[C@H]3CCC[C@H](C(=O)O)C3)cn2)c1COC(=O)N(C)C1CCCC1 (racemic) [Compound 81] | 0.05 to 0.3 µM | – | – |
| Cc1nsc(-c2ccc(O[C@H]3CCC[C@H](C(=O)O)C3)cn2)c1COC(=O)N(C)C1CCCC1 (racemic) [Compound 83] | 0.05 to 0.3 µM | – | – |
| Cc1nsc(-c2ccc(O[C@H]3CCC[C@H](C(=O)O)C3)c(C(F)(F)F)n2)c1COC(=O)N(C)C1CCCC1 (racemic) [Compound 84] | < 0.05 µM | – | – |
| Cc1nc(-c2c(C(F)(F)F)nn(C)c2COC(=O)N(C)C2CCCC2)ccc1O[C@H]1CCC[C@H](C(=O)O)C1 (racemic) [Compound 85] | 0.05 to 0.3 µM | – | – |
| Cc1noc(-c2ccc(O[C@H]3CCC[C@H](C(=O)O)C3)c(F)c2)c1COC(=O)N(C)C1CCCC1 (racemic) [Compound 86] | < 0.05 µM | – | – |
| Cc1nc(-c2c(N)nn(C)c2COC(=O)N(C)C2CCCC2)ccc1O[C@H]1CCC[C@H](C(=O)O)C1 (racemic) [Compound 87] | 0.05 to 0.3 µM | – | – |

| Structure (SMILES) | IC50 ([1]; read-out: LPAR1 IC50) | Cell migration inhibition rate (%) [2] | IC50 ([1]; LPAR1 IC50 (μM)) |
| --- | --- | --- | --- |
| COc1nn(C)c(COC(=O)N(C)C2CCCC2)c1-c1ccc(O[C@H]2CCC[C@H](C(=O)O)C2)c(C)n1 (racemic) [Compound 88, (+/−)-(1S,3S)-3-((6-(5-(((cyclopentyl(methyl)carbamoyl)oxy)methyl)-3-methoxy-1-methyl-1H-pyrazol-4-yl)-2-methylpyridin-3-yl)oxy)cyclohexane-1-carboxylic Acid] | 0.05 to 0.3 µM | C (C: 0-30%) | – |
| Cc1nc(-c2onc(C)c2COC(=O)N(C)C2CCCC2)cnc1O[C@H]1CCC[C@H](C(=O)O)C1 (racemic) [Compound 90] | < 0.05 µM | – | – |
| Cc1nc(-c2onc(C)c2COC(=O)N(C)C2CCCC2)ncc1O[C@H]1CCC[C@H](C(=O)O)C1 (racemic) [Compound 91, (+/−)-(1S,3S)-3-((2-(4-(((cyclopentyl(methyl)carbamoyl)oxy)methyl)-3-methylisoxazol-5-yl)-4-methylpyrimidin-5-yl)ox)cyclohexane-1-carboxylic Acid] | < 0.05 µM | C (C: 0-30%) | – |
| Cc1nc(-c2cnn(C)c2COC(=O)N(C)C2CCOC2)ccc1O[C@H]1CCC[C@H](C(=O)O)C1 (mixture of isomers) [Compound 93] | 0.3 to 10 µM | B (B: 30-50%) | – |
| CN(C(=O)OCc1c(-c2cnc(O[C@H]3CCC[C@H](C(=O)O)C3)c(N)n2)cnn1C)C1CCCC1 (racemic) [Compound 94, (+/−)-(1S,3S)-3-((3-amino-5-(5-(((cyclopentyl(methyl)carbamoyl)oxy)methyl)-1-methyl-1H-pyrazol-4-yl)pyrazin-2-yl)oxy)cyclohexane-1-carboxylic Acid] | 0.3 to 10 µM | C (C: 0-30%) | – |
| Cc1nc(-c2cnn(C)c2COC(=O)N(C)CC2COC2)ccc1O[C@H]1CCC[C@H](C(=O)O)C1 (racemic) [Compound 97] | 0.3 to 10 µM | C (C: 0-30%) | – |
| Cc1nc(-c2cnn(C)c2COC(=O)N(C)CC2CCOC2)ccc1O[C@H]1CCC[C@H](C(=O)O)C1 (mixture of isomers) [Compound 98, (+/−)-(1S,3S)-3-((2-methyl-6-(1-methyl-5-(((methyl((tetrahydrofuran-3-yl)methyl)carbamoyl)oxy)methyl)-1H-pyrazol-4-yl)pyridin-3-yl)oxy)cyclohexane-1-carboxylic Acid] | 0.3 to 10 µM | C (C: 0-30%) | – |
| Cc1nc(-c2c(COC(=O)N(C)C3CCCC3)n(C)[nH]c2=O)ccc1O[C@H]1CCC[C@H](C(=O)O)C1 (racemic) [Compound 99] | 0.3 to 10 µM | – | – |
| Cc1onc(-c2cnc(O[C@H]3CCC[C@H](C(=O)O)C3)c(F)n2)c1COC(=O)N(C)C1CCCC1 (racemic) [Compound 101] | < 0.05 µM | – | – |
| Cc1onc(-c2cnc(O[C@H]3CCC[C@H](C(=O)O)C3)cn2)c1COC(=O)N(C)C1CCCC1 (racemic) [Compound 102] | < 0.05 µM | A (A: 50-70%) | – |
| CN(C(=O)OCc1c(-c2cnc(O[C@H]3CCC[C@H](C(=O)O)C3)c(F)n2)cnn1C)C1CCCC1 (racemic) [Compound 103, (+/−)-(1S,3S)-3-((5-(5-(((cyclopentyl(methyl)carbamoyl)oxy)methyl)-1-methyl-1H-pyrazol-4-yl)-3-fluoropyrazin-2-yl)oxy)cyclohexane-1-carboxylic Acid] | < 0.05 µM | – | – |
| CN(C(=O)OCc1c(-c2cnc(O[C@H]3CCC[C@H](C(=O)O)C3)c(C#N)n2)cnn1C)C1CCCC1 (racemic) [Compound 104, (+/−)-(1S,3S)-3-((3-cyano-5-(5-(((cyclopentyl(methyl)carbamoyl)oxy)methyl)-1-methyl-1H-pyrazol-4-yl)pyrazin-2-yl)oxy)cyclohexane-1-carboxylic Acid] | < 0.05 µM | C (C: 0-30%) | – |
| CN(C(=O)OCc1c(-c2ccc(O[C@H]3CCC[C@H](C(=O)O)C3)c(N3CC(O)C3)n2)cnn1C)C1CCC1 (racemic) [Compound 107] | 0.3 to 10 µM | – | – |
| CN(C(=O)OCc1c(-c2ccc(O[C@H]3CCC[C@H](C(=O)O)C3)c(OCCO)n2)cnn1C)C1CCC1 (racemic) [Compound 111] | 0.3 to 10 µM | – | – |
| CN(C(=O)OCc1cnccc1-c1ccc(O[C@H]2CCC[C@H](C(=O)O)C2)cc1)C1CCCC1 [Compound 75] | – | – | 0.3 to 10 µM |
| CN(CC1CCCC1)C(=O)OCc1c(-c2ccc(O[C@H]3CCC[C@H](C(=O)O)C3)c(C#N)n2)cnn1C [Compound 78] | 0.05 to 0.3 µM | – | – |
| Cc1onc(-c2ccc(O[C@H]3CCC[C@H](C(=O)O)C3)c(C(F)(F)F)n2)c1COC(=O)N(C)C1CCCC1 [Compound 80] | < 0.05 µM | – | – |
| Cc1snc(-c2ccc(O[C@H]3CCC[C@H](C(=O)O)C3)c(C(F)(F)F)n2)c1COC(=O)N(C)C1CCCC1 [Compound 82] | < 0.05 µM | – | – |
